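Tested at 5 concentrations; 48 h exposure; 96-well plates; endpoints linearly interpolated, else capped at highest concentration. GI50 = concentration required for 50% inhibition of growth. Definition used: TGI = concentration required for complete inhibition of growth.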
Legend:
Experiment in all cases: NCI tumour cell line growth inhibition, 48 h
SNB-75 CNS = system: SNB-75 CNS
SN12C renal = system: SN12C renal
HCC-2998 colon = system: HCC-2998 colon
SF-268 CNS = system: SF-268 CNS
SK-MEL-2 melanoma = system: SK-MEL-2 melanoma
T-47D breast = system: T-47D breast
MCF7 breast = system: MCF7 breast
IGROV1 ovarian = system: IGROV1 ovarian
BT-549 breast = system: BT-549 breast
HCT-15 colon = system: HCT-15 colon

SMILES | GI50 (SNB-75 CNS) | TGI (SNB-75 CNS) | GI50 (SN12C renal) | TGI (SN12C renal) | GI50 (HCC-2998 colon) | TGI (HCC-2998 colon) | GI50 (SF-268 CNS) | TGI (SF-268 CNS) | GI50 (SK-MEL-2 melanoma) | TGI (SK-MEL-2 melanoma) | GI50 (T-47D breast) | TGI (T-47D breast) | GI50 (MCF7 breast) | TGI (MCF7 breast) | TGI (IGROV1 ovarian) | GI50 (BT-549 breast) | TGI (BT-549 breast) | GI50 (HCT-15 colon) | TGI (HCT-15 colon) | GI50 (IGROV1 ovarian)
CCCOC(=O)c1c(C)n(C)c2scc[n+]12 | 50.5 µM | > 100 µM | 59.5 µM | > 100 µM | 55.9 µM | > 100 µM | 48 µM | > 100 µM | 64.1 µM | > 100 µM | 38.5 µM | > 100 µM | 31.2 µM | > 100 µM | 22.9 µM | 35.9 µM | > 100 µM | > 100 µM | > 100 µM | –
CCCCCCSSC(=S)N(CC)CC | 16.8 µM | 47.6 µM | 18.3 µM | 40.3 µM | 29.7 µM | 91.5 µM | 33.5 µM | > 100 µM | 25 µM | 58.7 µM | 25.4 µM | > 100 µM | 13.9 µM | 30.8 µM | 86.7 µM | 17.1 µM | 45.2 µM | 28.4 µM | > 100 µM | 31.5 µM
CS(=O)(=O)OCCCNCCCOS(C)(=O)=O | – | 6940 µM | – | 3830 µM | – | 3670 µM | – | 7620 µM | – | 3690 µM | – | 6740 µM | – | 5320 µM | 7300 µM | – | 4500 µM | – | 4680 µM | –
O=C(NCC(F)(F)F)Nc1cccc(-c2cnc3cc(-c4ccc(F)cc4)ccn23)c1 | 0.24 µM | 2.09 µM | 1.54 µM | > 67.4 µM | 1.95 µM | 49.4 µM | 2.8 µM | > 100 µM | 0.477 µM | 12 µM | 2.69 µM | 62 µM | 0.586 µM | 18.5 µM | 7.75 µM | 1.31 µM | > 61 µM | 0.614 µM | > 74 µM | 0.673 µM
CCCCC#Cc1c(I)n(C)c(=O)[nH]c1=O | 12.3 µM | 24.7 µM | 13.2 µM | 26.5 µM | 1.58 µM | 2.93 µM | 2.68 µM | 7.64 µM | 1.93 µM | 4.06 µM | 1.7 µM | 6.96 µM | 9.6 µM | 25.4 µM | 3.04 µM | 1.94 µM | 4.55 µM | 1.52 µM | 2.87 µM | 1.55 µM
O=C1CSC(c2ccccc2Cl)N1c1nnc(Cn2cnnc2)o1 (centres undefined) | 3.19 µM | 41.8 µM | 23.1 µM | 76.3 µM | 12.3 µM | 27.2 µM | 13.9 µM | 93.7 µM | 22.6 µM | 94.8 µM | 3.76 µM | 31.9 µM | 1.63 µM | 13.2 µM | > 100 µM | 6.31 µM | 32.5 µM | 4.47 µM | 18.2 µM | 17 µM
